The structures appear in SMILES notation.

The target of one assay is T1, human TPO receptor (Homo sapiens, UniProt P40238).
T1 construct: expressed in transfected cells; host or cells: BaF-B03 (murine IL-3 dependent pro-B cell line); the resulting line is BaF/hTPOR
T1 sequence (P40238 26-635): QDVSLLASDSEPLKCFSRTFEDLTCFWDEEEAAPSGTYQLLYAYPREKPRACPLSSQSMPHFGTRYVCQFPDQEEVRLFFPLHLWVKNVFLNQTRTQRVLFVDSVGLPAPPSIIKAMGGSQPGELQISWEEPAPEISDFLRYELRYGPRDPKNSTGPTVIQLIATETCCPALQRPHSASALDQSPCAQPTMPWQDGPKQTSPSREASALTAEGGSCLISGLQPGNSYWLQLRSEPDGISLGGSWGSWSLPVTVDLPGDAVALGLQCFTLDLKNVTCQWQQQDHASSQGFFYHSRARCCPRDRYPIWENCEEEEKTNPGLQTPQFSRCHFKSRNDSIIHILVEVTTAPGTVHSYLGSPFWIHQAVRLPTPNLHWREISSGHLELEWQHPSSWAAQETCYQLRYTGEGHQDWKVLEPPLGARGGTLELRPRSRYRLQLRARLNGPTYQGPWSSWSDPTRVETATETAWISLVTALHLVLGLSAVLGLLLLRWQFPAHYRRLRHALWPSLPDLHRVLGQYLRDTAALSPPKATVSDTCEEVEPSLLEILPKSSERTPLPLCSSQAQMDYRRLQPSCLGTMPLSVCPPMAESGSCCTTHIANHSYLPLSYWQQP
Briefly: Thrombopoietic activity: proliferation of TPO dependent BaF/hTPOR cell line (WST-1). Type of assay: cell-based. The following applies: BaF/hTPOR cells, 20 hours incubation then WST-1 for 4 hours, absorbance at 450 nm; ED50 = half concentration of the concentration showing the maximum thrombopoietic activity. From the text:
The TPO dependent BaF/hTPOR cell line which was established by introducing human TPO receptor into BaF-B03 cells according to Collins et al (J. Cell. Physiol., 137:293-298 (1988)) was used to test the thrombopoietic activity of the present compound. The DNA sequences and encoded peptide sequences for human TPO receptor have been described by Vigon et al (Proc. Natl. Acad. Sci. USA, 89:5640-5644 (1992)). TPO dose not have any ability to support proliferation of interlukin-3 dependent parental cell line BaF-B03. BAF/hTPOR cells were maintained in RPMI medium and 10% WEHI-3 conditioned medium. These cells were washed once with PBS and resuspended in RPMI medium without WHEHI-3 conditioned medium and seeded into each well of 96-well microtiter plates at a density of 5×10^4 cells per well in the presence of the present compound or TPO. After incubation at 37° C. for 20 hours in the 5% CO2 incubator, WST-1 reagent (Takara Biomedicals, Japan) was added to each wells and the cells were further incubated for 4 hours. The absorbance at 450 nm was measured. Table 7 exemplifies the ED50 for tested compounds of the present invention, wherein the ED50 is the half concentration of the concentration showing the maximum thrombopoietic activity.
(Tetrazolium dyes change colour on reduction, which living cells bring about.)
In turn, `O=C1NC(=S)S/C1=C\c1ccc(C(=O)Nc2nc(-c3cccc(C(F)(F)F)c3F)cs2)cc1` [Compound A-1] had an EC50 of 8 nM.
With `O=C1NC(=O)/C(=C/c2ccc(C(=O)Nc3nc(-c4cc(F)ccc4F)cs3)cc2)S1` [Compound A-2], the EC50 was found to be 86 nM.
For `COc1ccc(-c2csc(NC(=O)c3ccc(/C=C4\SC(=O)NC4=O)cc3)n2)c(F)c1` [Compound A-3], it took 75 nM to reach a half-maximal effect (EC50).
Still for that read-out and setting: next, `O=C1NC(=O)/C(=C/c2ccc(C(=O)Nc3nc(-c4ccc(C(F)(F)F)cc4F)cs3)cc2)S1` [Compound A-4]: 26 nM; `O=C1NC(=O)/C(=C/c2ccc(C(=O)Nc3nc(-c4cccc(F)c4F)cs3)cc2)S1` [Compound A-5]: 25 nM.
The same measure, in the same setting: next, `O=C1NC(=O)/C(=C/c2ccc(C(=O)Nc3nc(-c4ccc(Br)cc4F)cs3)cc2)S1` [Compound A-6]: 38 nM; `Cc1ccc(-c2csc(NC(=O)c3ccc(/C=C4\SC(=O)NC4=O)cc3)n2)c(F)c1` [Compound A-7]: 70 nM.
In turn, `O=C1NC(=O)/C(=C/c2ccc(C(=O)Nc3nc(-c4ccc(-c5ccccc5)cc4F)cs3)cc2)S1` [Compound A-8] showed an EC50 of 345 nM.
The compound `O=C1NC(=O)/C(=C/c2ccc(C(=O)Nc3nc(-c4cc(F)c(F)c(F)c4F)cs3)cc2)S1` [Compound A-10] came in with an EC50 of 76 nM.
On the same count and under the same terms, with `O=C1NC(=O)/C(=C/c2ccc(C(=O)Nc3nc(-c4cccc(-c5ccccc5)c4F)cs3)cc2)S1` [Compound A-13] the figure was 25 nM; with `CCCCc1cccc(-c2csc(NC(=O)c3ccc(/C=C4\SC(=O)NC4=O)cc3)n2)c1F` [Compound A-28], 10 nM; with `CCCc1c(Br)ccc(-c2csc(NC(=O)c3ccc(/C=C4\SC(=O)NC4=O)cc3)n2)c1F` [Compound A-29], 16 nM.
In turn, `O=C1NC(=O)/C(=C/c2ccc(C(=O)Nc3nc(-c4cccc(-c5cccnc5)c4F)cs3)cc2)S1` [Compound A-30] registered an EC50 of 109 nM.
Still for that read-out and setting: next, `CCOc1cccc(-c2csc(NC(=O)c3ccc(/C=C4\SC(=O)NC4=O)cc3)n2)c1F` [Compound A-31]: 58 nM.
The same measure, in the same setting: with `CC(C)(C)CCc1cccc(-c2csc(NC(=O)c3ccc(/C=C4\SC(=O)NC4=O)cc3)n2)c1F` [Compound A-32] the figure was 9 nM; with `O=C1NC(=O)/C(=C/c2ccc(C(=O)Nc3nc(-c4cccc(CCc5ccccc5)c4F)cs3)cc2)S1` [Compound A-33], 12 nM.
Regarding `O=C1NC(=O)/C(=C/c2ccc(C(=O)Nc3nc(-c4cccc(Cc5ccccc5)c4F)cs3)cc2)S1` [Compound A-34], the EC50 is 23 nM.
On the same count and under the same terms, with `CCOCCc1cccc(-c2csc(NC(=O)c3ccc(/C=C4\SC(=O)NC4=O)cc3)n2)c1F` [Compound A-35] the figure was 23 nM; with `O=C1NC(=O)/C(=C/c2ccc(C(=O)Nc3nc(-c4cccc(C5CCCCC5)c4F)cs3)cc2)S1` [Compound A-37], 17 nM; with `O=C1NC(=O)/C(=C/c2ccc(C(=O)Nc3nc(-c4cccc(C5CCCC5)c4F)cs3)cc2)S1` [Compound A-38], 28 nM.
Compound `COCCc1cccc(-c2csc(NC(=O)c3ccc(/C=C4\SC(=O)NC4=O)cc3)n2)c1F` [Compound A-42] registered an EC50 of 37 nM.
Still for that read-out and setting: next, `COCCOCCc1cccc(-c2csc(NC(=O)c3ccc(/C=C4\SC(=O)NC4=O)cc3)n2)c1F` [Compound A-43]: 69 nM.
On the same count and under the same terms, next, `CCOC(=O)CCCCc1cccc(-c2csc(NC(=O)c3ccc(/C=C4\SC(=O)NC4=O)cc3)n2)c1F` [Compound A-44]: 84 nM; `CCOC(=O)CCCCCc1cccc(-c2csc(NC(=O)c3ccc(/C=C4\SC(=O)NC4=O)cc3)n2)c1F` [Compound A-45]: 74 nM.
Still for that read-out and setting: with `O=C1NC(=O)/C(=C/c2ccc(C(=O)Nc3nc(-c4cccc(OC(F)(F)F)c4F)cs3)cc2)S1` [Compound A-46] the figure was 13 nM.
Take `COC(c1cccc(-c2csc(NC(=O)c3ccc(/C=C4\SC(=O)NC4=O)cc3)n2)c1F)C(C)C` (stereo not shown) [Compound A-50]: the EC50 came out at 28 nM.
For the compound `COC(c1cccc(-c2csc(NC(=O)c3ccc(/C=C4\SC(=O)NC4=O)cc3)n2)c1F)C1CCCCC1` (stereo not shown) [Compound A-51], it took 13 nM to reach a half-maximal effect (EC50).

The assay is the same for the next values; noted with them: Table 7; BaF/hTPOR cells, 20 hours incubation then WST-1 for 4 hours, absorbance at 450 nm; ED50 = half concentration of the concentration showing the maximum thrombopoietic activity.
The compound `O=C1NC(=O)C(=Cc2ccc(C(=O)Nc3nc(-c4cccc(Br)c4F)cs3)cc2)S1` [Compound A-14] showed an EC50 of 26 nM.
On the same count and under the same terms, next, `COc1cccc(-c2csc(NC(=O)c3ccc(C=C4SC(=O)NC4=O)cc3)n2)c1F` [Compound A-15]: 73 nM.
`Cc1cccc(-c2csc(NC(=O)c3ccc(C=C4SC(=O)NC4=O)cc3)n2)c1F` [Compound A-16] yielded an EC50 of 25 nM.
In turn, `CCCCCc1cccc(-c2csc(NC(=O)c3ccc(C=C4SC(=O)NC4=O)cc3)n2)c1F` [Compound A-17] registered an EC50 of 13 nM.
On the same count and under the same terms, next, `O=C1NC(=O)C(=Cc2ccc(C(=O)Nc3nc(-c4ccc(F)c(Br)c4F)cs3)cc2)S1` [Compound A-18]: 83 nM; `O=C1NC(=O)C(=Cc2ccc(C(=O)Nc3nc(-c4ccc(F)c(-c5ccccc5)c4F)cs3)cc2)S1` [Compound A-19]: 69 nM; `O=C1NC(=O)C(=Cc2ccc(C(=O)Nc3nc(-c4cccc(-c5ccc(F)cc5)c4F)cs3)cc2)S1` [Compound A-20]: 28 nM.
As for `O=C1NC(=O)C(=Cc2ccc(C(=O)Nc3nc(-c4ccc(C(F)(F)F)c(Br)c4F)cs3)cc2)S1` [Compound A-21], the EC50 worked out at 355 nM.
As for `CCCCCCc1cccc(-c2csc(NC(=O)c3ccc(C=C4SC(=O)NC4=O)cc3)n2)c1F` [Compound A-22], a half-maximal response (EC50) required 7 nM.
Still for that read-out and setting: next, `CCCCCc1c(F)ccc(-c2csc(NC(=O)c3ccc(C=C4SC(=O)NC4=O)cc3)n2)c1F` [Compound A-23]: 75 nM; `CCCCOc1cccc(-c2csc(NC(=O)c3ccc(C=C4SC(=O)NC4=O)cc3)n2)c1F` [Compound A-24]: 49 nM; `CCc1cccc(-c2csc(NC(=O)c3ccc(C=C4SC(=O)NC4=O)cc3)n2)c1F` [Compound A-25]: 18 nM.
As for `CC(C)CCCCc1cccc(-c2csc(NC(=O)c3ccc(C=C4SC(=O)NC4=O)cc3)n2)c1F` [Compound A-26], it took 7 nM to reach a half-maximal effect (EC50).

By EC50 is commonly meant the concentration giving half of the maximal effect.

The record behind these values is patent publication US20040063764A1, “Halogen compounds having thrombopoietin receptor agonism” (priority 2001, published 2004).
